Experimental data taken from ChEMBL document CHEMBL1201862, “PubChem BioAssay data set” (2004).
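Growth conditions: 96-well plates. Treatment: test compound, 48 hours, 5 concentrations. Analysis: linear interpolation between bracketing concentrations; unreached endpoints set to highest concentration. GI50 is the concentration that inhibits growth by half.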 The source made the active and inactive calls. Rule as the data show it: active = GI50 up to about 1.1 µM and inactive = higher.

Experiments:
Experiment in all cases: NCI tumour cell line growth inhibition, 48 h
[1] = system: U-251
[2] = system: KM12
[3] = system: HCC 2998
[4] = system: A549
[5] = system: UACC-257
[6] = system: HT-29
[7] = system: NCI-H226
[8] = system: SN12C
[9] = system: COLO 205
[10] = system: KM-20L2
[11] = system: MOLT-4
[12] = system: UACC-62
[13] = system: RPMI-8226
[14] = system: SNB-75
[15] = system: XF498
[16] = system: RXF 393
[17] = system: SK-MEL-2
[18] = system: OVCAR-8
[19] = system: A498
[20] = system: OVCAR-4
[21] = system: ACHN
[22] = system: SNB-78
[23] = system: HCT-116
[24] = system: TK-10
[25] = system: HL-60
[26] = system: M14
[27] = system: LOX IMVI
[28] = system: SK-MEL-28
[29] = system: SR
[30] = system: NCI-H522
[31] = system: SNB-19
[32] = system: SF-539
[33] = system: HCT-15
[34] = system: SF-268
[35] = system: SW-620
[36] = system: LXFL 529
[37] = system: 786-0
[38] = system: HOP-62
[39] = system: HOP-92
[40] = system: CCRF-CEM
[41] = system: Malme-3M
[42] = system: IGROV-1
[43] = system: DMS-273
[44] = system: SF-295
[45] = system: SK-MEL-5
[46] = system: NCI-H460
[47] = system: NCI-H23
[48] = system: CAKI-1
[49] = system: EKVX
[50] = system: HOP-18
[51] = system: SK-OV-3
[52] = system: DLD-1
[53] = system: UO-31
[54] = system: OVCAR-3
[55] = system: K562
[56] = system: OVCAR-5
[57] = system: M19-MEL
[58] = system: DMS-114

Measured: GI50

CN(C)CCNC(=O)c1cccc2cc3ccc4ccccc4c3nc12
0.0684 µM: [33]
active: [1] 0.0755 µM | [2] 0.148 µM | [3] 0.104 µM | [4] 0.0226 µM | [5] 0.177 µM | [6] 0.0516 µM | [7] 0.112 µM | [8] 0.0531 µM | [9] 0.0414 µM | [10] 0.136 µM | [11] 0.0156 µM | [12] 0.0776 µM | [13] 0.145 µM | [14] 0.131 µM | [15] 0.056 µM | [16] 0.111 µM | [17] 0.203 µM | [18] 0.0594 µM | [19] < 0.01 µM | [20] 0.115 µM | [21] 0.0276 µM | [22] 0.182 µM | [23] 0.0294 µM | [24] 0.207 µM | [25] 0.0336 µM | [26] 0.2 µM | [27] 0.0502 µM | [28] 0.198 µM | [29] 0.0246 µM | [30] 0.122 µM | [31] 0.0942 µM | [32] 0.0811 µM | [34] 0.0953 µM | [35] 0.0306 µM | [36] 0.128 µM | [37] 0.0824 µM | [38] 0.0957 µM | [39] 0.143 µM | [40] 0.0406 µM | [41] 0.268 µM | [42] 0.105 µM | [43] 0.0224 µM | [44] 0.0867 µM | [45] 0.137 µM | [46] 0.0149 µM | [47] 0.0851 µM | [48] 0.0413 µM | [49] 0.145 µM | [50] 0.205 µM | [51] 0.121 µM | [52] 0.0561 µM | [53] 0.0481 µM | [54] 0.215 µM | [55] 0.0653 µM | [56] 0.214 µM

COc1cc([C@@H]2c3cc4c(cc3[C@@H](NC(=O)c3ccccc3)C3COC(=O)[C@@H]32)OCO4)cc(OC)c1O (stereo partly drawn)
9.84 µM: [33]
active: [4] 1.04 µM | [11] 0.491 µM | [12] 0.568 µM | [30] 0.423 µM | [46] 0.361 µM
inactive: [1] 1.32 µM | [2] 7.28 µM | [3] 14 µM | [5] 2.99 µM | [6] 3.18 µM | [7] 1.53 µM | [8] 2.55 µM | [57] 4.82 µM | [9] 17.5 µM | [10] 2.71 µM | [13] 2.61 µM | [14] 5.43 µM | [16] 7.31 µM | [17] 20.3 µM | [18] 8.99 µM | [19] 6.1 µM | [20] 39.7 µM | [21] 1.45 µM | [22] 41.2 µM | [23] 5.42 µM | [24] 32.4 µM | [58] 2.61 µM | [25] 1.87 µM | [26] 5.57 µM | [27] 2.52 µM | [28] 13.8 µM | [31] 19.4 µM | [32] 6.14 µM | [34] 4.55 µM | [35] 10.3 µM | [36] 12.1 µM | [37] 4.26 µM | [38] 2.54 µM | [39] 8.39 µM | [40] 1.57 µM | [41] 3.61 µM | [42] 1.65 µM | [43] 1.52 µM | [44] 3.51 µM | [45] 2.31 µM | [47] 2.77 µM | [48] 11.3 µM | [49] 21.4 µM | [50] > 100 µM | [51] 6.62 µM | [52] 14.9 µM | [53] 4.89 µM | [54] 20.8 µM | [55] 3.27 µM | [56] 49.9 µM

CC(NS(=O)(=O)c1ccc(Cl)cc1)C(=O)O (stereo not drawn)
> 100 µM: [33]
inactive: [1] > 100 µM | [2] > 100 µM | [4] > 100 µM | [5] > 100 µM | [6] > 100 µM | [8] > 100 µM | [57] > 100 µM | [9] > 100 µM | [10] > 100 µM | [11] > 100 µM | [12] > 100 µM | [13] > 100 µM | [14] > 100 µM | [15] 66.7 µM | [16] > 100 µM | [17] > 100 µM | [18] > 100 µM | [19] > 100 µM | [20] > 100 µM | [21] > 100 µM | [24] > 100 µM | [25] > 100 µM | [26] > 100 µM | [27] > 100 µM | [28] > 100 µM | [30] > 100 µM | [31] > 100 µM | [32] > 100 µM | [34] > 100 µM | [35] > 100 µM | [36] > 100 µM | [37] > 100 µM | [39] > 100 µM | [40] > 100 µM | [41] > 100 µM | [42] > 100 µM | [43] > 100 µM | [44] > 100 µM | [45] > 100 µM | [46] > 100 µM | [47] > 100 µM | [48] > 100 µM | [49] > 100 µM | [50] > 100 µM | [51] > 100 µM | [52] > 100 µM | [53] > 100 µM | [54] > 100 µM | [55] > 100 µM | [56] > 100 µM
